Assay results as given in PMC8752738, “A propolis-derived small molecule ameliorates metabolic syndrome in obese mice by targeting the CREB/CRTC2 transcriptional complex” (Nature Communications, 2022).
Values joined by “and” are separate entries in the source; they are usually repeats but may differ in a detail not shown here. Equal entries are not always repeated.

Assay: Glucose, insulin, and pyruvate tolerance tests
Format: in vivo, mouse
Design: AUC of IGTT, Total Area / AUC analysis of ITT, Total Area / AUC of ITT, group mean / AUC of PTT, group mean / IGTT, Mean Diff. APC - VEH / IGTT, group mean (Mean 1, APC): unit not given beside the values
Description: After overnight fasting, mice were i.p. injected or treated orally with D-glucose (1–2 g/kg) for glucose-tolerance tests (IGTT or OGTT) or injecting with sodium pyruvate (1–2 g/kg) for pyruvate tolerance tests (PTT). Insulin-tolerance tests (ITT) were performed by i.p. injection of insulin (1 U/kg) 2-h after food removal. […]

[1] = db/db mice, ip APC, ITT 0-120 min
[2] = db/db mice, ip APC, 15 min, n=6
[3] = db/db mice, ip APC, 30 min, n=6
[4] = db/db mice, ip APC, 60 min, n=6
[5] = db/db mice, ip APC, 120 min, n=6
[6] = db/db mice, ip APC, PTT 0-120 min

CC(C)=CCc1cc(C=CC(=O)O)cc(CC=C(C)C)c1O [APC, 3,5-diprenyl-4-hydroxycinnamic acid]
IGTT, Mean Diff. APC - VEH (db/db mice, 60 min): -166.5 | IGTT, group mean (Mean 1, APC) (db/db mice, 60 min, n=8): 217.8 | IGTT, Mean Diff. APC - VEH (db/db mice, 120 min): -105 | IGTT, group mean (Mean 1, APC) (db/db mice, 120 min, n=8): 171 | AUC of ITT (Total Area), individual mice (db/db mice, ip APC): 528.6 and 524.4 and 533.7 and 561.3 and 514.8 and 472.5 | AUC of ITT in db, difference between means (APC - VEH) ± SEM (db/db mice, ip APC): -215.2 ± 51.46 | AUC of PTT, individual mice (db/db mice, ip APC): 534.6 and 662.4 and 481.5 and 659.7 and 691.6 and 494.5 | IGTT blood glucose (db/db mice, ip APC, 0 mins, individual mouse, n=8): 153 mg/dL and 144 mg/dL and 142.2 mg/dL and 138.6 mg/dL and 176.4 mg/dL and 127.8 mg/dL and 140.4 mg/dL and 113.4 mg/dL | IGTT blood glucose (db/db mice, ip APC, 15 mins, individual mouse, n=8): 477 mg/dL and 363.6 mg/dL and 334.8 mg/dL and 511.2 mg/dL and 419.4 mg/dL and 423 mg/dL and 480.6 mg/dL and 525.6 mg/dL | IGTT blood glucose (db/db mice, ip APC, 30 mins, individual mouse, n=8): 262.8 mg/dL and 450 mg/dL and 293.4 mg/dL and 275.4 mg/dL and 228.4 mg/dL and 228.6 mg/dL and 124.2 mg/dL and 385.2 mg/dL | IGTT blood glucose (db/db mice, ip APC, 60 mins, individual mouse, n=8): 205.2 mg/dL and 233.8 mg/dL and 221.4 mg/dL and 237.6 mg/dL and 329.4 mg/dL and 163.8 mg/dL and 135 mg/dL and 216 mg/dL | IGTT blood glucose (db/db mice, ip APC, 120 mins, individual mouse, n=8): 176.4 mg/dL and 270 mg/dL and 153 mg/dL and 138.6 mg/dL and 250.2 mg/dL and 133.2 mg/dL and 99 mg/dL and 147.6 mg/dL | ITT blood glucose, difference between column means (CT vs APC) [1]: 51.32 | ITT blood glucose, mean over all time points (Mean of APC) [1]: 134.7 | ITT blood glucose, Mean Diff. APC - CT (db/db mice, ip APC, 0 min): -52.47 | ITT blood glucose, individual mice (db/db mice, ip APC, 0 min): 178.2 mg/dL and 172.8 mg/dL and 156.6 mg/dL and 194.4 mg/dL and 190.4 mg/dL and 192.6 mg/dL | ITT blood glucose, group mean (Mean 1, APC) (db/db mice, ip APC, 0 min, n=6): 180.8 | ITT blood glucose, Mean Diff. APC - CT (db/db mice, ip APC, 15 min): -63.57 | ITT blood glucose, individual mice (db/db mice, ip APC, 15 min): 137.6 mg/dL and 129.6 mg/dL and 153 mg/dL and 133 mg/dL and 138.3 mg/dL and 126 mg/dL | ITT blood glucose, group mean (Mean 1, APC) [2]: 136.3 | ITT blood glucose, Mean Diff. APC - CT (db/db mice, ip APC, 30 min): -56.08 | ITT blood glucose, individual mice (db/db mice, ip APC, 30 min): 101.2 mg/dL and 129.6 mg/dL and 115.2 mg/dL and 124.2 mg/dL and 128.4 mg/dL and 111.6 mg/dL | ITT blood glucose, group mean (Mean 1, APC) [3]: 118.4 | ITT blood glucose, Mean Diff. APC - CT (db/db mice, ip APC, 60 min): -54.15 | ITT blood glucose, individual mice (db/db mice, ip APC, 60 min): 120.6 mg/dL and 115 mg/dL and 129.6 mg/dL and 138.6 mg/dL and 105.2 mg/dL and 91.8 mg/dL | ITT blood glucose, group mean (Mean 1, APC) [4]: 116.8 | ITT blood glucose, Mean Diff. APC - CT (db/db mice, ip APC, 120 min): -30.35 | ITT blood glucose, individual mice (db/db mice, ip APC, 120 min): 160.2 mg/dL and 127.6 mg/dL and 115.2 mg/dL and 136.6 mg/dL and 95.3 mg/dL and 93.6 mg/dL | ITT blood glucose, group mean (Mean 1, APC) [5]: 121.4 | PTT blood glucose, difference between column means (VEH vs APC) [6]: 95.48 | PTT blood glucose, mean over all time points (Mean of APC) [6]: 143.6 | PTT blood glucose, Mean Diff. APC - VEH (db/db mice, ip APC, 0 min): -59.27 | PTT blood glucose, individual mice (db/db mice, ip APC, 0 min): 156.6 mg/dL and 129.6 mg/dL and 131.4 mg/dL and 153 mg/dL and 147.6 mg/dL and 135.8 mg/dL | PTT blood glucose, group mean (Mean 1, APC) (db/db mice, ip APC, 0 min, n=6): 142.3 | PTT blood glucose, Mean Diff. APC - VEH (db/db mice, ip APC, 15 min): -65.02 | PTT blood glucose, individual mice (db/db mice, ip APC, 15 min): 142.2 mg/dL and 181.8 mg/dL and 156.6 mg/dL and 169.2 mg/dL and 180.5 mg/dL and 149.4 mg/dL | PTT blood glucose, group mean (Mean 1, APC) [2]: 163.3 | PTT blood glucose, Mean Diff. APC - VEH (db/db mice, ip APC, 30 min): -106.5 | PTT blood glucose, individual mice (db/db mice, ip APC, 30 min): 135 mg/dL and 194.4 mg/dL and 126 mg/dL and 172.8 mg/dL and 163.7 mg/dL and 142.2 mg/dL | PTT blood glucose, group mean (Mean 1, APC) [3]: 155.7 | PTT blood glucose, Mean Diff. APC - VEH (db/db mice, ip APC, 60 min): -119.1 | PTT blood glucose, individual mice (db/db mice, ip APC, 60 min): 124.2 mg/dL and 140.4 mg/dL and 99 mg/dL and 169.2 mg/dL and 201.6 mg/dL and 93.6 mg/dL | PTT blood glucose, group mean (Mean 1, APC) [4]: 138 | PTT blood glucose, Mean Diff. APC - VEH (db/db mice, ip APC, 120 min): -127.5 | PTT blood glucose, individual mice (db/db mice, ip APC, 120 min): 109.8 mg/dl and 162 mg/dl and 68.4 mg/dl and 144 mg/dl (2×) and 82.8 mg/dl | PTT blood glucose, group mean (Mean 1, APC) [5]: 118.5 | IGTT AUC, Total Area (db/db mice, ip APC, individual mouse, n=8): 1110 and 1254 and 997.2 and 1163 and 1191 and 945.9 and 859.5 and 1257 | AUC of ITT in db, group mean (db/db mice, ip APC, n=6): 522.6 | AUC in PTT, mean of differences (APC - VEH) (db/db mice, ip APC, paired t test, 6 pairs): -383.9 | AUC of IGTT in db/db, group mean (db/db mice, n=8): 1097 | AUC of ITT, group mean (mean of APC group, n=7): 367.6
